Measured values: patent publication US8318223B2, “Method for producing modified milk” (Ajinomoto Co., Inc., priority 2008, dated 2012)
Like-named read-outs stand apart in the source and are kept apart here.

Target: T1, PG (Chryseobacterium proteolyticum, UniProt Q9AQQ8)
T1 construct: made in house
T1 sequence (Q9AQQ8 136-320): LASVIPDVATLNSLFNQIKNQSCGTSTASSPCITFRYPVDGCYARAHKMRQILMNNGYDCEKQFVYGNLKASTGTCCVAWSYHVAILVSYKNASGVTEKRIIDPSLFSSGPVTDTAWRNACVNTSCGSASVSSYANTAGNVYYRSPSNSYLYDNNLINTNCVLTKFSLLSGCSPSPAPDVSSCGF
Type: biochemical
Description: Calcium chelating materials were added to LTLT sterilized milk (66° C., 30 minutes: Takanashi low temperature sterilized milk) properly. The reactivity of PG with each milk sample was measured as follows. To each milk sample was added 0.4 U/ml (corresponding to about 12 u per 1 g of milk protein) of PG (a purified product described in Experimental Example 1) and incubated at 50° C. for 60 minutes. The enzyme reaction was ceased by adding 12% TCA the amount of which is the same as the reacting solution and centrifuged (12,000 rpm, 5° C., 5 minutes) to measure the amount of ammonium in the supernatant using an ammonium quantitative measurement kit, F-kit (Roche).
Alkaline materials were added to LTLT sterilized milk (66° C., 30 minutes: Takanashi low temperature sterilized milk) properly so as to adjust the pH 7 to 8.4. The reactivity of PG with each milk sample was measured as in Example 1.
Glutathione or cysteine (Nacalai Tesque, Inc.) as a thiol-type reducing agent was added to LTLT sterilized milk (66° C., 30 minutes: Takanashi low temperature sterilized milk) properly. The reactivity of PG to each milk was measured as in Example 1. […] By the same manner, the reactivity of PG to milk was measured by adding glutathione yeast extract (AROMILD UG8, Kohjin Co., Ltd.) to milk at different concentrations.

[1] = alkaline additive 0.20% in LTLT milk, control (pH 6.67) 13.6
[2] = alkaline additive 0.25% in LTLT milk, control (pH 6.67) 13.6
[3] = alkaline additive […] in LTLT milk, control (pH 6.67) 13.6
[4] = alkaline additive 0.30% in LTLT milk, control (pH 6.67) 13.6
[5] = additive 0.4% in LTLT milk, PG 0.4 U/ml, 50° C., 60 minutes, control 22.1
[6] = additive 0.5% in LTLT milk, PG 0.4 U/ml, 50° C., 60 minutes, control 22.1

O=P([O-])([O-])[O-].[Na+].[Na+].[Na+] [Trisodium phosphate]
PG reactivity (%) [1]: 65.8% | PG reactivity (%) [2]: 72% | PG reactivity (%) [3]: 54.9%

N=C(N)NCCC[C@H](N)C(=O)O [Arg (amino acid), arginine]
PG reactivity (%) [1]: 54.1% | PG reactivity (%) [2]: 67% | PG reactivity (%) [4]: 76.2% | PG reactivity (%) (alkaline additive 0.40% in LTLT milk, control (pH 6.67) 13.6): 75%

O=C([O-])[O-].[Na+].[Na+] [Sodium carbonate]
PG reactivity (%) (alkaline additive 0.10% in LTLT milk, control (pH 6.67) 13.6): 61.7% | PG reactivity (%) [1]: 65% | PG reactivity (%) [3]: 72.7%

O=C([O-])O.[Na+] [Sodium hydrogen carbonate]
PG reactivity (%) [4]: 58.1% | PG reactivity (%) (alkaline additive 1.00% in LTLT milk, control (pH 6.67) 13.6): 57.8%

O=C([O-])CN(CCN(CC(=O)[O-])CC(=O)[O-])CC(=O)[O-].[Na+].[Na+].[Na+].[Na+] [EDTA, tetrasodium ethylenediaminetetraacetate]
PG reactivity (%) (additive 20 mM in LTLT milk, PG 0.4 U/ml, 50° C., 60 minutes, control 22.1): 55.9%

O=C([O-])CC(O)(CC(=O)[O-])C(=O)[O-].[Na+].[Na+].[Na+] [Trisodium citrate]
PG reactivity (%) (additive 0.2% in LTLT milk, PG 0.4 U/ml, 50° C., 60 minutes, control 22.1): 40.5% | PG reactivity (%) [5]: 47.3% | PG reactivity (%) [6]: 42.8%

O=C([O-])[O-].[K+].[K+] [Potassium carbonate]
PG reactivity (%) (alkaline additive 0.13% in LTLT milk, control (pH 6.67) 13.6): 62.5%

sodium γ-polyglutamate [γ-PGA]
PG reactivity (%) [5]: 49.8% | PG reactivity (%) [6]: 58.1% | PG reactivity (%) (additive 0.75% in LTLT milk, PG 0.4 U/ml, 50° C., 60 minutes, control 22.1): 79.2% | PG reactivity (%) (additive 1% in LTLT milk, PG 0.4 U/ml, 50° C., 60 minutes, control 22.1): 96.1%
